# Measured values: US6660752B2, “2,6-Substituted chroman derivatives useful as beta-3 adrenoreceptor agonists” (Bayer Pharmaceuticals Corporation, priority 2001, dated 2003)
# Structures can show the parent of a compound that is named as a salt.
# Target: T1, human beta-3-adrenergic receptor (Homo sapiens, UniProt P13945)
# T1 construct: stably express full-length human beta-3-adrenergic receptor; expressed in transfected cells; host or cells: Chinese hamster ovary (CHO) cells
# Test: cAMP production (beta-3 agonist activity) in CHO cells stably expressing human beta-3-adrenergic receptor, cAMP SPA
# Assay type: cell-based
# Conditions: CHO cells expressing full-length human beta-3-adrenergic receptor, 30 min incubation, 10 μM to 3 nM, read-out: Beta-3 Agonistic Activity: Compounds with EC50 values >1 μM
# Experimental: Chinese hamster ovary (CHO) cells that stably express full-length human beta-3-adrenergic receptor (Granneman et al., Mol. Pharmacol. 44:264-270, 1993) can be used in the following procedure. The cell line is grown in 90% F12 nutrient mixture (HAM), 10% fetal bovine serum, 100 units/ml penicillin G sodium, […] streptomycin sulfate, and 2 mM L-glutamine at 37° C. in 95% air and 5% CO2. The transfected cell line is maintained with G-418 (800 μg/ml).
# To test the agonist activity, cells are exposed to test compound and then assayed for cAMP production. CHO cells (100 μl) are plated at 5×10^4 cells/well of a 96-well plate (Costar, Cambridge, Mass.) to achieve 70% confluency the next day. After overnight incubation at 37° C., media is removed and the cells are treated for 30 minutes at 37° C. with KRP buffer (120 mM NaCl, 5.1 mM KCl, 0.6 mM MgSO4.7H2O, 0.8 mM CaCl2.H2O, […] phosphate buffer, […] Hepes pH 7.4)+[…] IBMX ([…]), +1% DMSO, +/− test compounds ([…]). Test compounds are assayed from 10 μM to 3 nM with 3-fold serial dilutions. The control agonist, isoproterenol (10 mM stock in 1.1 mM ascorbate), is assayed by 3-fold dilution beginning at 1 μM. After a 30-minute incubation with the test compounds, the buffer/compound mixture is removed. The cells are lysed and cAMP levels are measured using the cAMP SPA screening assay system (Amersham, Arlington Heights, Ill.). The cAMP values are then plotted to determine the EC50 of each compound tested.
# T1 sequence (P13945 whole entry): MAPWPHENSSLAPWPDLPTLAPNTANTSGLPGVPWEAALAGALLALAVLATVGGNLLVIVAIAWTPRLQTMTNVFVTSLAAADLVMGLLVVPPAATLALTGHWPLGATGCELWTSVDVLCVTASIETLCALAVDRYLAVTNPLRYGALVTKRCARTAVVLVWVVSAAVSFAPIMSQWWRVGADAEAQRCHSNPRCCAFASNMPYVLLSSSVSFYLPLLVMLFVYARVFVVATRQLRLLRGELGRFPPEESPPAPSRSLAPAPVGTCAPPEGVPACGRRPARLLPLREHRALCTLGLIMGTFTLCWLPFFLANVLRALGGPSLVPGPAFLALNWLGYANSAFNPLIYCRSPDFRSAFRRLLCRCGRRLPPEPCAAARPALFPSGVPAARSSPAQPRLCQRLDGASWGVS
row,SMILES,EC50
1,"O[C@@H](CNC[C@H]1CCc2cc(-c3ccc(Cl)c(Cl)c3)ccc2O1)c1cccnc1 [Example 39, (1R)-2-({[(2R)-6-(3,4-dichlorophenyl)-3,4-dihydro-2H-chromen-2-yl]methyl}amino)-1-(3-pyridinyl)ethanol]",> 1 µM
2,Nc1ccc([C@@H](O)CNC[C@H]2CCc3cc(C(=O)N4CCC[C@@H]4C(=O)O)ccc3O2)cn1 [Example 367],> 1 µM
3,Nc1ccc([C@@H](O)CNC[C@H]2CCc3cc(C(=O)N(CC(=O)O)Cc4ccccn4)ccc3O2)cn1 [Example 365],> 1 µM
4,O[C@@H](CNC[C@H]1CCc2cc(-c3cccc(Cl)c3)ccc2O1)c1cccnc1 [Example 41],> 1 µM

# Same assay, conditions: CHO cells expressing full-length human beta-3-adrenergic receptor, 30 min incubation, 10 μM to 3 nM, read-out: Beta-3 Agonistic Activity: Compounds with EC50 values ≦1 μM
row,SMILES,EC50
1,COc1cc(OC)nc(NS(=O)(=O)c2cc(-c3ccc4c(c3)CC[C@H](CNC[C@H](O)c3cccnc3)O4)ccc2OC)n1 [Example 270],≤ 1 µM
2,Cc1cccc(C(=O)NS(=O)(=O)c2cccc(-c3ccc4c(c3)CC[C@H](CNC[C@H](O)c3cccnc3)O4)c2)c1 [Example 297],≤ 1 µM
3,"O=C(CC(F)(F)F)NS(=O)(=O)c1ccc(-c2ccc3c(c2)CC[C@H](CNC[C@H](O)c2cccnc2)O3)cc1 [Example 284, 4-[(2R)-2-({[(2R)-2-hydroxy-2-(3-pyridinyl)ethyl]amino}methyl)-3,4-dihydro-2H-chromen-6-yl]-N-(3,3,3-trifluoropropanoyl)benzenesulfonamide]",≤ 1 µM
4,"O=C(NC1CCCCC1)NS(=O)(=O)c1ccc(-c2ccc3c(c2)CC[C@H](CNC[C@H](O)c2cccnc2)O3)cc1 [Example 329, 3-{(1R)-2-[({(2R)-6-[4-({[(cyclohexylamino)carbonyl]amino}sulfonyl)phenyl]-3,4-dihydro-2H-chromen-2-yl}methyl)amino]-1-hydroxyethyl}pyridine]",≤ 1 µM
5,CC(C)C(=O)NS(=O)(=O)c1ccc(-c2ccc3c(c2)CC[C@H](CNC[C@H](O)c2cccnc2)O3)cc1 [Example 290],≤ 1 µM
6,"COc1cc(-c2ccc3c(c2)CC[C@H](CNC[C@H](O)c2cccnc2)O3)ccc1C(=O)O [Example 184, 4-[(2R)-2-({[(2R)-2-hydroxy-2-(3-pyridinyl)ethyl]amino}methyl)-3,4-dihydro-2H-chromen-6-yl]-2-methoxybenzoic acid]",≤ 1 µM
7,COc1cccc(C(=O)NS(=O)(=O)c2cccc(-c3ccc4c(c3)CC[C@H](CNC[C@H](O)c3cccnc3)O4)c2)c1 [Example 298],≤ 1 µM
8,"O=S(=O)(Nc1ncccn1)c1cccc(-c2ccc3c(c2)CC[C@H](CNC[C@H](O)c2cccnc2)O3)c1 [Example 261, 3-[(2R)-2-({[(2R)-2-hydroxy-2-(3-pyridinyl)ethyl]amino}methyl)-3,4-dihydro-2H-chromen-6-yl]-N-(2-pyrimidinyl)benzenesulfonamide]",≤ 1 µM
9,"O=C(Nc1ccc(F)cc1)NS(=O)(=O)c1ccc(-c2ccc3c(c2)CC[C@H](CNC[C@H](O)c2cccnc2)O3)cc1 [Example 327, 3-((1R)-2-{[((2R)-6-{4-[({[(4-fluorophenyl)amino]carbonyl}amino)sulfonyl]phenyl}-3,4-dihydro-2H-chromen-2-yl)methyl]amino}-1-hydroxyethyl)pyridine]",≤ 1 µM
10,"O=C(O)c1ccc(-c2ccc3c(c2)CC[C@H](CNC[C@H](O)c2cccnc2)O3)cc1Oc1ccccc1 [Example 192, 4-[(2R)-2-({[(2R)-2-hydroxy-2-(3-pyridinyl)ethyl]amino}methyl)-3,4-dihydro-2H-chromen-6-yl]-2-(phenyloxy)benzoic Acid]",≤ 1 µM
11,"COc1cccc(C(=O)NS(=O)(=O)c2ccc(-c3ccc4c(c3)CC[C@H](CNC[C@H](O)c3cccnc3)O4)cc2)c1 [Example 293, 4-[(2R)-2-({[(2R)-2-hydroxy-2-(3-pyridinyl)ethyl]amino}methyl)-3,4-dihydro-2H-chromen-6-yl]-N-(3-methoxybenzoyl)benzenesulfonamide]",≤ 1 µM
12,"O=C(O)c1ccc(-c2ccc3c(c2)CC[C@H](CNC[C@H](O)c2cccnc2)O3)cc1Oc1ccc(F)cc1 [Example 193, 2-(4-fluorophenoxy)-4-[(2R)-2-({[(2R)-2-hydroxy-2-(3-pyridinyl)ethyl]amino}methyl)-3,4-dihydro-2H-chromen-6-yl]benzoic acid]",≤ 1 µM
13,"CCOc1cc(-c2ccc3c(c2)CC[C@H](CNC[C@H](O)c2cccnc2)O3)ccc1C(=O)O [Example 185, 2-ethoxy-4-[(2R)-2-({[(2R)-2-hydroxy-2-(3-pyridinyl)ethyl]amino}methyl)-3,4-dihydro-2H-chromen-6-yl]benzoic acid]",≤ 1 µM
14,COC(=O)c1cccc(-c2ccc3c(c2)CC[C@H](CNC[C@H](O)c2ccc(N)nc2)O3)c1 [Example 382],≤ 1 µM
15,CN1C(=O)c2ccc(NS(=O)(=O)c3cccc(-c4ccc5c(c4)CC[C@H](CNC[C@H](O)c4cccnc4)O5)c3)cc2C1=O [Example 252],≤ 1 µM
16,"Nc1ccc([C@@H](O)CNC[C@H]2CCc3cc(C(=O)NCC(=O)O)ccc3O2)cn1 [Example 362, N-{[(2R)-2-({[(2R)-2-(6-amino-3-pyridinyl)-2-hydroxyethyl]amino}methyl)-3,4-dihydro-2H-chromen-6-yl]carbonyl}glycine]",≤ 1 µM
17,COc1ccc(-c2ccc3c(c2)CC[C@H](CNC[C@H](O)c2cccnc2)O3)cc1S(=O)(=O)Nc1ncccn1 [Example 272],≤ 1 µM
18,"Cc1ccnc(NS(=O)(=O)c2ccc(-c3ccc4c(c3)CC[C@H](CNC[C@H](O)c3cccnc3)O4)cc2)n1 [Example 268, 4-[(2R)-2-({[(2R)-2-hydroxy-2-(3-pyridinyl)ethyl]amino}methyl)-3,4-dihydro-2H-chromen-6-yl]-N-(4-methyl-2-pyrimidinyl)benzenesulfonamide]",≤ 1 µM
19,O=C(O)c1ccc(-c2ccc3c(c2)CC[C@H](CNC[C@@H](O)c2cccc(Cl)c2F)O3)cc1 [Example 352],≤ 1 µM
20,CCC(CC)C(=O)NS(=O)(=O)c1ccc(-c2ccc3c(c2)CC[C@H](CNC[C@H](O)c2cccnc2)O3)cc1 [Example 289],≤ 1 µM
21,"CS(=O)(=O)Nc1ccc(-c2ccc3c(c2)CC[C@H](CNC[C@H](O)c2cccnc2)O3)nc1 [Example 321, N-{6-[(2R)-2-({[(2R)-2-hydroxy-2-(3-pyridinyl)ethyl]amino}methyl)-3,4-dihydro-2H-chromen-6-yl]-3-pyridinyl}methanesulfonamide]",≤ 1 µM
22,"O=C(CS(=O)(=O)c1ccccc1)c1ccc(-c2ccc3c(c2)CC[C@H](CNC[C@H](O)c2cccnc2)O3)cc1 [Example 308, 1-{4-[(2R)-2-({[(2R)-2-hydroxy-2-(3-pyridinyl)ethyl]amino}methyl)-3,4-dihydro-2H-chromen-6-yl]phenyl}-2-(phenylsulfonyl)ethanone Dihydrochloride]",≤ 1 µM
23,"CS(=O)(=O)c1ccc(Oc2cc(-c3ccc4c(c3)CC[C@H](CNC[C@H](O)c3cccnc3)O4)ccc2C(=O)O)cc1 [Example 198, 4-[(2R)-2-({[(2R)-2-hydroxy-2-(3-pyridinyl)ethyl]amino}methyl)-3,4-dihydro-2H-chromen-6-yl]-2-[4-(methylsulfonyl)phenoxy]benzoic acid]",≤ 1 µM
24,Cc1ccc(C(=O)NS(=O)(=O)c2ccc(-c3ccc4c(c3)CC[C@H](CNC[C@H](O)c3cccnc3)O4)cc2)cc1 [Example 296],≤ 1 µM
25,O=C(Nc1ccc(Cl)cc1)NS(=O)(=O)c1ccc(-c2ccc3c(c2)CC[C@H](CNC[C@H](O)c2cccnc2)O3)cc1 [Example 340],≤ 1 µM
26,"O=S(=O)(Nc1ccc(-c2ccc3c(c2)CC[C@H](CNC[C@H](O)c2cccnc2)O3)nc1)c1ccc(Cl)cc1 [Example 320, 4-chloro-N-{6-[(2R)-2-({[(2R)-2-hydroxy-2-(3-pyridinyl)ethyl]amino}methyl)-3,4-dihydro-2H-chromen-6-yl]-3-pyridinyl}benzenesulfonamide]",≤ 1 µM
27,"Nc1ccc(-c2ccc3c(c2)CC[C@H](CNC[C@H](O)c2cccnc2)O3)nc1 [Example 317, (1R)-2-({[(2R)-6-(5-amino-2-pyridinyl)-3,4-dihydro-2H-chromen-2-yl]methyl}amino)-1-(3-pyridinyl)ethanol Tetrahydrochloride]",≤ 1 µM
28,"O=C(Nc1ccccc1)NS(=O)(=O)c1ccc(-c2ccc3c(c2)CC[C@H](CNC[C@H](O)c2cccnc2)O3)cc1 [Example 328, 3-[(1R)-2-({[(2R)-6-(4-{[(anilinocarbonyl)amino]sulfonyl}phenyl)-3,4-dihydro-2H-chromen-2-yl]methyl}amino)-1-hydroxyethyl]pyridine]",≤ 1 µM
29,"O[C@@H](CNC[C@H]1CCc2cc(I)ccc2O1)c1cccnc1 [Example 36, (1R)-2-({[(2R)-6-iodo-3,4-dihydro-2H-chromen-2-yl]methyl}amino)-1-(3-pyridinyl)ethanol]",≤ 1 µM
